Read-outs that look alike come from different tables or passages of the source.
How the values were obtained:
[1] = literature, Ga-67 Citrate 10 mCi, Cu-64 ATSM 25 mCi, cited from earlier work; for Effective Dose: FDG-PET/CT F-18 10 mCi, Sestamibi Tc-99m 30 mCi, FDG-PET/PM w/o CT F-18 10 mCi
[2] = system: primary tumor site and metastatic lymph nodes; assay: Whole body PET/CT imaging of breast cancer patients; format: in vivo, human; conditions: six PET/CT patients: six primary lesions, four involved lymph nodes
Experimental: Caucasian, Hispanic, African American or Asian non-pregnant women, eighteen years of age or older, with newly diagnosed, histologically proven BC were enrolled. Image guided percutaneous biopsy was performed two to six weeks prior to this imaging procedure. Each patient signed the informed consent form. For this feasibility study, a biostatistician determined that six patients be studied with PET and thirteen with PEM. This determination was based on the assumption that Cu-64-TP3805 will detect 80% of the lesions and there will be 87% power to conclude the use of this agent to diagnosis BC.
Each patient fasted for six hours prior to F-18-FDG injection. Before F-18-FDG injection, blood sugar was monitored. Patients with sugar levels below 250 mg/DL were enrolled. […]
For Cu-64-TP3805 imaging, patients neither fasted nor were blood sugar levels determined. […]
All images were read by two board certified nuclear medicine physicians and a board certified breast imaging physician. […] For six patients with PET/CT, standardized uptake values (SUV) were calculated for the primary tumor site and metastatic lymph nodes, and compared for the respective radiotracers. Metabolic tumor volume was calculated using 50% isocontour geometry method for comparison, as it is relatively a better parameter, as compared to SUV.

## CNC1=NN=C(C)C(C)=NN=C(NC)[S][64Cu][S]1 [Cu-64 ATSM]
[1]
  Effective Dose: 33.3 mSv
  Liver Dose: 361 mSv

## OC[C@H]1O[C@@H](O)[C@H]([18F])[C@@H](O)[C@@H]1O [F-18-FDG]
[2]
  detection of lesions: ten lesions detected
[1]; listed as FDG-PET/CT
  Effective Dose: 31.9 mSv
[1]; listed as FDG-PET/PM w/o CT
  Effective Dose: 2.8 mSv

## O=C([O-])CC(O)(CC(=O)[O-])C(=O)[O-].[Ga+3] [Ga-67 Citrate]
[1]
  Effective Dose: 39 mSv
  Liver Dose: 69 mSv

From patent US20150374861A1, “KIT FOR TUMOR IMAGING” (THOMAS JEFFERSON UNVERSITY, priority 2013, published 2015)
